No end group written: not given here.

The values that follow come from patent US20100210557A1, “USE OF RFRP, ALONE OR IN COMBINATION WITH NEUROKININ-B, AS A THERAPEUTIC AGENT” (priority 2007, published 2010).

One experiment has as its system HCMV strain AD169. Description: HCMV plaque formation assay in MRC-5 cells. The conditions noted are these: for inhibition of HCMV plaque formation as compared to the virus control: 10 micrograms per ml, 7-10 days.
The subject of experiment [1] is spleen cells of Ovalbumin-immunized Balb/c mice. Description: Th1/Th2 cytokine profiling assay. The note with it: 10 micrograms per ml; Ovalbumin restimulation 10 micrograms/ml; 72 hours. Format: cell-based, mouse. The protocol:
The Balb/c mice (originated in 1923, it is a popular strain and is used in many different research disciplines. […] On day 50, spleens of the mice were harvested (3 weeks after last boost with Ovalbumin). […] Thereafter, additional Ovalbumin was added to the cells at 10 micrograms/ml for in vitro restimulation of the cells. 72 hours later, cell supernatants were harvested and assayed using the Becton Dickinson Mouse […] Cytokine CBA Kit. This kit can be used to measure Interleukin-2 (IL-2), Interleukin-4 (IL-4), Interleukin-5 (IL-5), Interferon-γ (IFN-γ), and Tumor Necrosis Factor-α (TNF-α) protein levels in a single sample. The kit performance has been optimized for analysis of physiologically relevant concentrations (pg/ml levels) of specific cytokine proteins in tissue culture supernatants and serum samples.

Experiment [2] has as its system LPS-induced TNF-alpha production in human macrophages. Description: TNF alpha production assay (ELISA). Type of experiment: cell-based. The conditions noted are these: 10 micrograms per ml; LPS 200 ng/ml; overnight. How it is done: Human Peripheral Blood Mononuclear Cells (PBMC) were obtained from normal human donors. The macrophages were prepared by adherence of PBMC to the plastic wells of the plates. […] Not stimulated macrophages served as negative background control. After overnight incubation, supernatants from the control and LPS-stimulated cultures were harvested and assayed for TNF alpha production employing a TNF alpha specific ELISA.
On the technique in general: ELISA stands for enzyme-linked immunosorbent assay.

The subject of experiment [3] is hepatitis B virus (HBV) ayw strain. Description: HBV assay in HepG2-2.2.15 cells (secreted HBV DNA by TaqMan PCR). The conditions noted are these: 10 micrograms per ml; six days; HBV DNA in supernatant. Type of experiment: cell-based. The source says:
HepG2-2.2.15 is a stable cell line containing the hepatitis B virus (HBV) ayw strain genome (ATCC Cat. No. CRL-11997). Antiviral compounds blocking any late step of viral replication such as transcription, translation, pregenome encapsidation, reverse transcription, particle assembly and release can be identified and characterized using this cell line. In this assay, an active compound will reduce the production of secreted HBV from cells, measured by utilizing real time quantitative PCR (TaqMan) assay to directly and accurately measure HBV DNA copies.
HepG2-2.2.15 cells were plated in 96-well microtiter plates. After 16-24 hours the confluent monolayer of HepG2-2.2.15 cells was washed and the medium was replaced with complete medium containing test peptides—10 micrograms per ml—in duplicate. […] Six days following the initial administration of the peptides, the cell culture supernatants was collected, treated with pronase and DNAse and then used in a real-time quantitative TaqMan PCR assay. The PCR-amplified HBV DNA was detected in real-time by monitoring increases in fluorescence signals that result from the exonucleolytic degradation of a quenched fluorescence probe molecule that hybridizes to the amplified HBV DNA. […] Antiviral activity was calculated from the reduction in HBV DNA levels (% virus control). […]

On to `Nc1nc(O)c2ncn(COC(CO)CO)c2n1` [Ganciclovir, reference compound], for which, in the experiment on HCMV strain AD169 (positive control), the “antiviral activity of positive control compound (HCMV)” value is “expected levels of antiviral activity”.

Regarding “Asp-Met-His-Asp-Phe-Phe-Val-Gly-Leu-Met-NH2 (DMHDFFVGLM-NH2) [Peptide 2]”, in experiment [1], the “IFNγ spleen cells; TH1 response (% of control)” value is recorded as 126.8 % of control, the “IL-2 spleen cells (% of control)” value is listed as 198.0 % of control, the “IL-4 spleen cells; TH2 response (% of control)” value is 103.5 % of control and the “IL-5 spleen cells; TH2 response (% of control)” value is reported as 99.2 % of control. The “TNF-a spleen cells; TH1 response (% of control)” value in experiment [1] is given as 151.0 % of control. In the experiment with HCMV strain AD169, the “inhibition of HCMV plaque formation as compared to the virus control” value is “did not inhibit”. Moreover, the “induction of the LPS-induced TNF-alpha production in human macrophages” value in experiment [2] worked out at 15.9%. Moreover, the “inhibition of HBV replication as compared to the virus control infection” value in experiment [3] stood at 78.5%.

On to “Met-Pro-His-Ser-Phe-Ala-Asn-Leu-Pro-Leu-Arg-Phe-NH2 (MPHSFANLPLRF-NH2) [Peptide 1]”, for which, in experiment [1], the “IFNγ spleen cells; TH1 response (% of control)” value is given as 57.5 % of control, the “IL-2 spleen cells (% of control)” value was 239.7 % of control, the “IL-4 spleen cells; TH2 response (% of control)” value is on record as 168.7 % of control and the “IL-5 spleen cells; TH2 response (% of control)” value is 99.2 % of control. For the same compound, the “TNF-a spleen cells; TH1 response (% of control)” value in experiment [1] was 106.3 % of control. Further, the “inhibition of HCMV plaque formation as compared to the virus control” value with HCMV strain AD169 is “did not inhibit”. In addition, in experiment [2], the “induction of the LPS-induced TNF-alpha production in human macrophages” value turned out to be 21.7%. For the same compound, the “inhibition of HBV replication as compared to the virus control infection” value in experiment [3] worked out at 77.8%.
